This note sets out measurements from the PolyMetriX glass transition set.

`*CC(*)(C)C(=O)OCCCCCCN1CCN(c2ccc(/N=N/c3ccc(C#N)cc3)cc2)CC1` (repeat unit) gave a glass transition temperature of 77.00 °C.

The compound `*CC(*)(C)C(=O)OCCCCCCN1CCN(c2ccc(/N=N/c3ccc([N+](=O)[O-])cc3)cc2)CC1` (repeat unit) had a glass transition temperature of 60.00 °C.

Consider `*CC(*)(C)C(=O)OCCCCCCOc1ccc(/C=N/c2ccc(C#N)cc2)cc1` (repeat unit), for which the glass transition temperature came to 35.00 °C.

The compound `*CC(*)(C)C(=O)OCCCCCCOc1ccc(/N=N/c2ccc(C#N)cc2)cc1` (repeat unit) yielded a glass transition temperature of 61.00 °C.

Take `*CC(*)(C)C(=O)OCCCCCCOc1ccc(/N=N/c2ccc(C3OCC4(CO3)CC3C=CC4C3)cc2)cc1` (repeat unit): the glass transition temperature was 118.50 °C.

On to `*CC(*)(C)C(=O)OCCCCCCOc1ccc(/N=N/c2ccc(OCCCC)cc2)cc1` (repeat unit), for which the glass transition temperature is 79.00 °C.

For the compound `*CC(*)(C)C(=O)OCCCCCCOc1ccc(/N=N/c2ccc(OCCCCCCCCCC)cc2)cc1` (repeat unit), the glass transition temperature is 110.00 °C.

For the compound `*CC(*)(C)C(=O)OCCCCCCOc1ccc(/N=N/c2ccc([N+](=O)[O-])cc2)cc1` (repeat unit), the glass transition temperature amounted to 108.00 °C.

In the case of `*CC(*)(C)C(=O)OCCCCCCOc1ccc(/N=N/c2ccncc2)cc1` (repeat unit), the glass transition temperature was found to be 42.00 °C.

The compound `*CC(*)(C)C(=O)OCCCCCCOc1ccc(C(=O)Oc2ccc(/N=N/c3ccc(C#N)cc3)c3ccccc23)cc1` (repeat unit) gave a glass transition temperature of 41.00 °C.

`*CC(*)(C)C(=O)OCCCCCCOc1ccc(C(=O)Oc2ccc(OC)cc2)cc1` (repeat unit) displayed a glass transition temperature of 46.00 °C.

`*CC(*)(C)C(=O)OCCCCCCOc1ccc(OC(=O)c2ccc(-c3ccc(OC)cc3)cc2)cc1` (repeat unit) gave a glass transition temperature of 57.00 °C.

In turn, `*CC(*)(C)C(=O)OCCCCCCOc1ccc2cc(C(=O)Oc3ccccc3)ccc2c1` (repeat unit) displayed a glass transition temperature of 39.00 °C.

In turn, `*CC(*)(C)C(=O)OCCCCCCn1c2ccccc2c2ccccc21` (repeat unit) gave a glass transition temperature of 73.00 °C.

`*CC(*)(C)C(=O)OCCCCCOc1ccc(-c2ccc(C#N)cc2)cc1` (repeat unit): the glass transition temperature is 60.00 °C.

On to `*CC(*)(C)C(=O)OCCCCCc1ccc(/N=N/c2ccc(OC(F)(F)F)cc2)cc1` (repeat unit), for which the glass transition temperature worked out at 202.50 °C.

Take `*CC(*)(C)C(=O)OCCCCOc1ccc(C(=O)Oc2ccc(OC)cc2)cc1` (repeat unit): the glass transition temperature was found to be 45.00 °C.

Take `*CC(*)(C)C(=O)OCCCCOc1ccc(OC(=O)c2ccc(OC)c(Br)c2)cc1` (repeat unit): the glass transition temperature was determined as 69.00 °C.

With `*CC(*)(C)C(=O)OCCCCOc1ccc(OC(=O)c2ccc(OCCCCCCCC)cc2)cc1` (repeat unit), the glass transition temperature stood at 10.00 °C.

In the case of `*CC(*)(C)C(=O)OCCCCc1ccccc1` (repeat unit), the glass transition temperature came out at 9.00 °C.

`*CC(*)(C)C(=O)OCCCCn1c2ccccc2c2cc(/N=N/c3ccc([N+](=O)[O-])cc3[N+](=O)[O-])ccc21` (repeat unit) showed a glass transition temperature of 132.00 °C.

As to `*CC(*)(C)C(=O)OCCCOc1ccc(C(=O)Oc2ccc3ccc(=O)oc3c2)cc1` (repeat unit), the glass transition temperature is 68.00 °C.

`*CC(*)(C)C(=O)OCCC[Si]12O[Si]3(CC(C)C)O[Si]4(CC(C)C)O[Si](CC(C)C)(O1)O[Si]1(CC(C)C)O[Si](CC(C)C)(O2)O[Si](CC(C)C)(O3)O[Si](CC(C)C)(O4)O1` (repeat unit) yielded a glass transition temperature of 85.00 °C.

In turn, `*CC(*)(C)C(=O)OCCCc1ccc(/N=N/c2ccc(OC(F)(F)F)cc2)cc1` (repeat unit) returned a glass transition temperature of 211.50 °C.

Regarding `*CC(*)(C)C(=O)OCCF` (repeat unit), the glass transition temperature came out at 90.00 °C.

Compound `*CC(*)(C)C(=O)OCCN(C)c1ccc(/C=C/c2ccc([N+](=O)[O-])cc2)cc1` (repeat unit) gave a glass transition temperature of 107.00 °C.

As to `*CC(*)(C)C(=O)OCCN(C)c1ccc(/N=N/c2ccc([N+](=O)[O-])cc2)cc1` (repeat unit), the glass transition temperature stood at 110.00 °C.

Take `*CC(*)(C)C(=O)OCCN(CC)c1ccc(/N=N/c2ccc(S(C)(=O)=O)cc2)cc1` (repeat unit): the glass transition temperature was 144.00 °C.

For `*CC(*)(C)C(=O)OCCN(CC)c1ccc(/N=N/c2ccc([N+](=O)[O-])cc2)cc1` (repeat unit), the glass transition temperature is 126.00 °C.

As for `*CC(*)(C)C(=O)OCCNC(C)(C)C` (repeat unit), the glass transition temperature worked out at 41.00 °C.

`*CC(*)(C)C(=O)OCCOC` (repeat unit) showed a glass transition temperature of 24.00 °C.

In the case of `*CC(*)(C)C(=O)OCCOC(=O)c1cc([N+](=O)[O-])cc([N+](=O)[O-])c1` (repeat unit), the glass transition temperature amounted to 92.00 °C.

As to `*CC(*)(C)C(=O)OCCOCCO` (repeat unit), the glass transition temperature came to 20.00 °C.

Consider `*CC(*)(C)C(=O)OCCOCCOC` (repeat unit), for which the glass transition temperature is 57.00 °C.

`*CC(*)(C)C(=O)OCCOCCOCC1(C)COCCOCCOCCOC1` (repeat unit): the glass transition temperature turned out to be 10.00 °C.

Turning to `*CC(*)(C)C(=O)OCCOCCOCCOCCOc1ccc(/N=N/c2ccc(C#N)cc2)cc1` (repeat unit), the glass transition temperature came to 20.00 °C.

As for `*CC(*)(C)C(=O)OCCOCCOCC[N+](CC)(CC)CCCCS(=O)(=O)O` (repeat unit), the glass transition temperature is 27.00 °C.

`*CC(*)(C)C(=O)OCCOCCOc1ccc(/N=N/c2ccc(C#N)cc2)cc1` (repeat unit): the glass transition temperature is 57.00 °C.

`*CC(*)(C)C(=O)OCCO[Si](C)(C)C` (repeat unit) had a glass transition temperature of 89.00 °C.

For the compound `*CC(*)(C)C(=O)OCCOc1ccc(-c2ccc(-c3ccc(C#N)cc3)cc2)cc1` (repeat unit), the glass transition temperature is 115.00 °C.

Consider `*CC(*)(C)C(=O)OCCOc1ccc(/N=N/c2ccc([N+](=O)[O-])cc2)cc1` (repeat unit), for which the glass transition temperature was 112.00 °C.

In turn, `*CC(*)(C)C(=O)OCCS(=O)(=O)c1ccc(/N=N/c2ccc(N(CC)CC)cc2)cc1` (repeat unit) had a glass transition temperature of 142.00 °C.

In the case of `*CC(*)(C)C(=O)OCC[N+](C)(C)CCCCCCC` (repeat unit), the glass transition temperature was -44.00 °C.

As to `*CC(*)(C)C(=O)OCCc1ccc(/N=N/c2ccccc2)cc1` (repeat unit), the glass transition temperature was 80.00 °C.

On to `*CC(*)(C)C(=O)OCCn1c2ccccc2c2cc(/N=N/c3ccc([N+](=O)[O-])cc3[N+](=O)[O-])ccc21` (repeat unit), for which the glass transition temperature is 182.00 °C.

Compound `*CC(*)(C)C(=O)OCc1c(Cl)cccc1Cl` (repeat unit) showed a glass transition temperature of 58.90 °C.

Turning to `*N=P(Cl)(N=P(Cl)(/N=S(/*)Oc1ccccc1-c1ccccc1)Oc1ccccc1-c1ccccc1)Oc1ccccc1-c1ccccc1` (repeat unit), the glass transition temperature was 79.00 °C.

Take `*Oc1ccc(/C(C)=N/c2ccc(/N=C(\C)c3ccc(Oc4ccc(C(C)(C)c5ccc(*)cc5)cc4)cc3)cc2)cc1` (repeat unit): the glass transition temperature is 161.00 °C.
